Key:
[1] = biological target: T1, bovine beta-2 adrenoceptor (Bos taurus, UniProt Q28044); assay: cAMP assay in CHO cells transfected with the bovine beta-2 adrenoceptor (DiscoveRx Hit Hunter cAMP II); assay type: cell-based; conditions: CHO cells transfected with bovine beta-2 adrenoceptor, 30 minutes incubation with compound
T1 construct: expressed in transfected cells; host or cells: CHO cells
Method in brief: (§1)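 CHO cells expressing porcine or bovine β2 receptor pre-incubated 30 min with 0.5 mM IBMX, then exposed to compound (5×10^−12 to 10^−5 M) for 30 min at 37 °C. cAMP read by enzyme-fragment complementation kit; duplicate samples, EC50 from curve fitting.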

[2] = biological target: T2, porcine beta-2 adrenoceptor (Sus scrofa, UniProt Q28997); assay: cAMP assay in CHO cells transfected with the porcine beta-2 adrenoceptor (DiscoveRx Hit Hunter cAMP II); assay type: cell-based; conditions: CHO cells transfected with porcine beta-2 adrenoceptor, 30 minutes incubation with compound
T2 construct: expressed in transfected cells; host or cells: CHO cells
Method in brief: as §1

T1 sequence (Q28044 whole entry): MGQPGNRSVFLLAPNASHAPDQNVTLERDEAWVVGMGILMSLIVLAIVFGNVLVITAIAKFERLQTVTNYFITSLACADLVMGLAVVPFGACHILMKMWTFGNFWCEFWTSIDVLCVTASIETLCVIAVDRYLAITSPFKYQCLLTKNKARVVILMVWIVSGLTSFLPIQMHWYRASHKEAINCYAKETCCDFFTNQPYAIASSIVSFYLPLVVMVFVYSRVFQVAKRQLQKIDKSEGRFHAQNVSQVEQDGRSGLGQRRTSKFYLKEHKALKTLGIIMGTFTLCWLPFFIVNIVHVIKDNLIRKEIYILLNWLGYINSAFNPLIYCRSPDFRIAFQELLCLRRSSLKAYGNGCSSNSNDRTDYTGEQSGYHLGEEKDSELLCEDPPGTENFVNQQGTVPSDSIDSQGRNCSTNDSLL
T2 sequence (Q28997 whole entry): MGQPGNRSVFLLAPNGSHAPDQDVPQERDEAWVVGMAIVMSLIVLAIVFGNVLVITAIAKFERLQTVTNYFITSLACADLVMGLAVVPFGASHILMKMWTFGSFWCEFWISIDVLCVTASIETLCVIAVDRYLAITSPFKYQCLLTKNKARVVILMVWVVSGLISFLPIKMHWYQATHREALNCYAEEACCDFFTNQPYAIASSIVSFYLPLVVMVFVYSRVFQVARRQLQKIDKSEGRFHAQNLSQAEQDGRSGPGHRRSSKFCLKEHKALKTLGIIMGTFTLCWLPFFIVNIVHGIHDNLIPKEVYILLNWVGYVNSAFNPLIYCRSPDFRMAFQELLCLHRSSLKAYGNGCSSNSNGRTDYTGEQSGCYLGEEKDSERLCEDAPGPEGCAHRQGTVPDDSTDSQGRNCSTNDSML

| SMILES | EC50 [1] [nM] | EC50 [2] [nM] |
| --- | --- | --- |
| Cc1[nH]c2ccc(F)cc2c1CCC(C)N[C@@H]1CCn2c(=O)[nH]c3cccc(c32)[C@H]1O (single isomer, unassigned) [Example 54] | 2.7 | 3.1 |
| CC(CCc1c[nH]c2cccnc12)N[C@@H]1CCn2c(=O)[nH]c3cccc(c32)[C@H]1O (single isomer, unassigned) [Example 55] | 4.4 | 9.9 |
| CC(CCc1cnn(C)c1)N[C@@H]1CCn2c(=O)[nH]c3cccc(c32)[C@H]1O (single isomer, unassigned) [Example 56] | 5.2 | 2.7 |
| CC(CCc1c[nH]c2cnccc12)N[C@@H]1CCn2c(=O)[nH]c3cccc(c32)[C@H]1O (single isomer, unassigned) [Example 57] | 5.7 | 13 |
| CC(CCc1n[nH]c2ccccc12)N[C@@H]1CCn2c(=O)[nH]c3cccc(c32)[C@H]1O (single isomer, unassigned) [Example 58] | 8.3 | 33 |
| Cc1nn(C)cc1CCC(C)N[C@@H]1CCn2c(=O)[nH]c3cccc(c32)[C@H]1O (single isomer, unassigned) [Example 59] | 20 | 17 |
| CC(CCc1c[nH]c2cc(C#N)ccc12)N[C@@H]1CCn2c(=O)[nH]c3cccc(c32)[C@H]1O (single isomer, unassigned) [Example 60] | 23 | 13 |
| CC(CCn1cncn1)N[C@@H]1CCn2c(=O)[nH]c3cccc(c32)[C@H]1O (single isomer, unassigned) [Example 61] | 28 | 18 |
| CC(CCc1c[nH]c2ccncc12)N[C@@H]1CCn2c(=O)[nH]c3cccc(c32)[C@H]1O (single isomer, unassigned) [Example 62] | 35 | 28 |
| Cc1cc(CCC(C)N[C@@H]2CCn3c(=O)[nH]c4cccc(c43)[C@H]2O)ccn1 (single isomer, unassigned) [Example 63] | 81 | 25 |
| Cc1cc(C)n(CCC(C)N[C@@H]2CCn3c(=O)[nH]c4cccc(c43)[C@H]2O)n1 (single isomer, unassigned) [Example 64] | 169 | 188 |
| C[C@H](CCc1c[nH]c2ccccc12)N[C@@H]1CCn2c(=O)[nH]c3cccc(c32)[C@H]1O [Example 4e, 7-Hydroxy-6-{[3-(1H-indol-3-yl)-1-methylpropyl]amino}-4,5,6,7-tetrahydroimidazo[4,5,1-jk][1]benzazepin-2(1H)-one] | 1.1 | 3.7 |
| C[C@H](CCc1c[nH]c2ccccc12)N[C@@H]1CCn2c(=O)[nH]c3cccc(c32)[C@H]1O [Example 4f, 7-Hydroxy-6-{[3-(1H-indol-3-yl)-1-methylpropyl]amino}-4,5,6,7-tetrahydroimidazo[4,5,1-jk][1]benzazepin-2(1H)-one] | 1.7 | 2.5 |
| CNc1nc(CC(C)NC2CCn3c(=O)[nH]c4cccc(c43)C2O)ns1 (stereo not drawn) [Example 10, 7-Hydroxy-6-({1-methyl-2-[5-(methylamino)-1,2,4-thiadiazol-3-yl]ethyl}amino)-4,5,6,7-tetrahydroimidazo[4,5,1-jk][1]benzazepin-2(1H)-one] | 497 | 399 |
| CC(Cc1ccco1)NC1CCn2c(=O)[nH]c3cccc(c32)C1O (stereo not drawn) [Example 11, 6-{[2-(2-Furyl)-1-methylethyl]amino}-7-hydroxy-4,5,6,7-tetrahydroimidazo[4,5,1-jk][1]benzazepin-2(1H)-one] | 108 | 64 |
| CC(CCc1nc2ccccc2[nH]1)NC1CCn2c(=O)[nH]c3cccc(c32)C1O (stereo not drawn) [Example 12, 6-{[3-(1H-Benzimidazol-2-yl)-1-methylpropyl]amino}-7-hydroxy-4,5,6,7-tetrahydroimidazo[4,5,1-jk][1]benzazepin-2(1H)-one] | 34 | 53 |
| CC(CCc1ccccn1)NC1CCn2c(=O)[nH]c3cccc(c32)C1O (stereo not drawn) [Example 13, 7-Hydroxy-6-[(1-methyl-3-pyridin-2-ylpropyl)amino]-4,5,6,7-tetrahydroimidazo[4,5,1-jk][1]benzazepin-2(1H)-one] | 356 | 184 |
| CC(CCc1cn(C)c2ccccc12)NC1CCn2c(=O)[nH]c3cccc(c32)C1O (stereo not drawn) [Example 14a, 7-Hydroxy-6-{[1-methyl-3-(1-methyl-1H-indol-3-yl)propyl]amino}-4,5,6,7-tetrahydroimidazo[4,5,1-jk][1]benzazepin-2(1H)-one] | 18 | 26 |
| CC(CCn1cccn1)NC1CCn2c(=O)[nH]c3cccc(c32)C1O (stereo not drawn) [Example 15, 7-Hydroxy-6-{[1-methyl-3-(1H-pyrazol-1-yl)propyl]amino}-4,5,6,7-tetrahydroimidazo[4,5,1-jk][1]benzazepin-2(1H)-one] | 161 | 98 |
| O=c1[nH]c2cccc3c2n1CCC(NCCCc1c[nH]c2ccccc12)C3O (stereo not drawn) [Example 19, 7-Hydroxy-6-{[3-(1H-indol-3-yl)propyl]amino}-4,5,6,7-tetrahydroimidazo[4,5,1-jk][1]benzazeopin-2(1H)-one] | 50 | 65 |
| CC(CCc1nccs1)NC1CCn2c(=O)[nH]c3cccc(c32)C1O (stereo not drawn) [Example 24a, 7-Hydroxy-6-{[1-methyl-3-(1,3-thiazol-2-yl)propyl]amino}-4,5,6,7-tetrahydroimidazo[4,5,1-jk][1]benzazepin-2(1H)-one] | 409 | 464 |
| CC(CCc1c[nH]c2ccncc12)NC1CCn2c(=O)[nH]c3cccc(c32)C1O (stereo not drawn) [Example 31a, 7-Hydroxy-6-{[1-methyl-3-(1H-pyrrolo[3,2-c]pyridin-3-yl)propyl]amino}-4,5,6,7-tetrahydroimidazo[4,5,1-jk][1]benzazepin-2(1H)-one] | 197 | 146 |
| CC(CCc1c[nH]c2cnccc12)NC1CCn2c(=O)[nH]c3cccc(c32)C1O (stereo not drawn) [Example 32a, 7-Hydroxy-6-{[1-methyl-3-(1H-pyrrolo[2,3-c]pyridin-3-yl)propyl]amino}-4,5,6,7-tetrahydroimidazo[4,5,1-jk][1]benzazepin-2(1H)-one] | 52 | 92 |
| CC(CCc1ccc[nH]c1=O)NC1CCn2c(=O)[nH]c3cccc(c32)C1O (stereo not drawn) [Example 36, 7-Hydroxy-6-{[1-methyl-3-(2-oxo-1,2-dihydropyridin-3-yl)propyl]amino}-4,5,6,7-tetrahydroimidazo[4,5,1-jk][1]benzazepin-2(1H)-one] | 59 | 56 |
| Cc1c(CC[C@@H](C)N[C@@H]2CCn3c(=O)[nH]c4cccc(c43)[C@H]2O)cnn1C [Example 53, (6R,7R)-6-{[(1R)-3-(1,5-Dimethyl-1H-pyrazol-4-yl)-1-methylpropyl]amino}-7-hydroxy-4,5,6,7-tetrahydroimidazo[4,5,1-jk][1]benzazepin-2(1H)-one] | 2 | 2.8 |
| C[C@H](CCc1cnco1)N[C@@H]1CCn2c(=O)[nH]c3cccc(c32)[C@H]1O [Example 66, (6R,7R)-7-hydroxy-6-{[(1R)-1-methyl-3-(1,3-oxazol-5-yl)propyl]amino}-4,5,6,7-tetrahydroimidazo[4,5,1-jk][1]benzazepin-2(1H)-one] | 18.7 | 6.2 |
| COc1ncc(CC[C@@H](C)N[C@@H]2CCn3c(=O)[nH]c4cccc(c43)[C@H]2O)s1 [Example 67, (6R,7R)-7-hydroxy-6-{[(1R)-3-(2-methoxy-1,3-thiazol-5-yl)-1-methylpropyl]amino}-4,5,6,7-tetrahydroimidazo[4,5,1-jk][1]benzazepin-2(1H)-one] | 2.7 | 2.7 |

Reference: patent US20080267942A1, “BENZAZEPIN-2(1H)-ONE DERIVATIVES” (Pfizer Limited, priority 2006, published 2008)
